Molecular target: T1, human histamine H3 receptor (Homo sapiens, UniProt Q9Y5N1)
T1 construct: One microgram of supercoiled H3 receptor cDNA was added to the cells and mixed; expressed in transfected cells; membranes
Assay: [3H]-N-methylhistamine binding
Procedure: Thus in the present invention receptor binding was determined using the human histamine H3 receptor (See Lovenberg et al Mol. Pharmacol. 1999, 1107). Screening using the human receptor is particularly important for the identification of new therapies for the treatment of human disease. Conventional binding assays for example are determined using rat synaptosomes (Garbarg et al J. Pharmacol. Exp. Ther. 1992, 263, 304), rat cortical membranes (West et al Mol. Pharmacol. 1990, 610), and guinea pig brain (Korte et al Biochem. Biophys. Res. Commun. 1990, 978). Only limited studies have been performed previously using human tissue but these allude to significant differences in the pharmacology of rodent and primate receptors (West et al Eur. J. Pharmacol. 1999, 233).
Transfection of Cells with Human Histamine Receptor
A 10 cm tissue culture dish with a confluent monolayer of SK-N-MC cells was split two days prior to transfection. Using sterile technique the media was removed and the cells were detached from the dish by the addition of trypsin. One fifth of the cells were then placed onto a new 10 cm dish. Cells were grown in a 37° C. incubator with 5% CO2 in Minimal Essential Media Eagle with 10% Fetal Bovine Serum. After two days cells were approximately 80% confluent. These were removed from the dish with trypsin and pelleted in a clinical centrifuge. The pellet was then re-suspended in 400 μL complete media and transferred to an electroporation cuvette with a 0.4 cm gap between the electrodes (Bio-Rad #165-2088). One microgram of supercoiled H3 receptor cDNA was added to the cells and mixed. The voltage for the electroporation was set at 0.25 kV, the capacitance was set at 960 μF. After electroporation the cells were diluted into 10 mL complete media and plated onto four 10 cm dishes. Because of the variability in the efficiency of electroporation, four different concentrations of cells were plated. The ratios used were; 1:20, 1:10, 1:5, with the remainder of the cells being added to the fourth dish. The cells were allowed to recover for 24 hours before adding the selection media (complete media with 600 μg/mL G418). After 10 days dishes were analyzed for surviving colonies of cells. Dishes with well isolated colonies were used. Cells from individual colonies were isolated and tested. SK-N-MC cells were used because they give efficient coupling for inhibition of adenylate cyclase. The clones that gave the most robust inhibition of adenylate cyclase in response to histamine were used for further study.
[^3H]-N-methylhistamine Binding
Cell pellets from histamine H3 receptor-expressing SK-N-MC cells were homogenized in 20 mM TrisHCl/0.5 mM EDTA. Supernatants from a 800 g spin were collected, recentrifuged at 30,000 g for 30 minutes. Pellets were re-homogenized in 50 mM Tris/5 mM EDTA (pH 7.4). Membranes were incubated with 0.8 nM [^3H]-N-methylhistamine plus/minus test compounds for 45 min at 25° C. and harvested by rapid filtration over GF/C glass fiber filters (pretreated with 0.3% polyethylenimine) followed by four washes with ice cold buffer. Filters were dried, added to 4 mL scintillation cocktail and then counted on a liquid scintillation counter. Non-specific binding was defined with 10 μM histamine. The pKi values were calculated based on a Kd of 800 pM and a ligand concentration ([L]) of 800 pM according to the formula: Ki=(IC50)/(1+([L]/(Kd))

[1] = [3H]-N-methylhistamine 0.8 nM, membranes of H3 receptor-expressing SK-N-MC cells
[2] = Table 5, [3H]-N-methylhistamine binding
[3] = Table 2, [3H]-N-methylhistamine binding

T1 sequence (Q9Y5N1 whole entry): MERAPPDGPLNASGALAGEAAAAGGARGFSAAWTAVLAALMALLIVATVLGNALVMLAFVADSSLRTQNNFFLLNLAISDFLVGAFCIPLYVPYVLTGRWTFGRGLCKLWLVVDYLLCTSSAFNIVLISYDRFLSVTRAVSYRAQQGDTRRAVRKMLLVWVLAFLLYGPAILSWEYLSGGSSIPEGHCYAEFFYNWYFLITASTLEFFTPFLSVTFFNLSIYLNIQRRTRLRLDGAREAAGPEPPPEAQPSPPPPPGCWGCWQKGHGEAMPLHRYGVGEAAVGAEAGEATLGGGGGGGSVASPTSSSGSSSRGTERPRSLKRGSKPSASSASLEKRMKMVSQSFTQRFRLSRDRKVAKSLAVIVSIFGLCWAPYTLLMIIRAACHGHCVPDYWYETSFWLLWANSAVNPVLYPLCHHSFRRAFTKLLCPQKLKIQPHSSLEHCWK

Row | Ki [1] [µM] | Compound | further results
1 | 0.021 | O=C(O)c1ccc(Sc2ccc([C@H]3CC[C@H]4CCCCN43)cc2)cc1 (racemic) [Example 42, tran-3-[4-(4-Carboxylicphenylthio)phenyl]octahydroindolizine] | –
2 | 0.0003 | c1cc([C@H]2CC[C@H]3CCCCN32)ccc1OCCCN1CCCCC1 (racemic) [Example 92, trans-3-(4-(3-Piperidinylpropoxy)phenyl)octahydroindolizine] | –
3 | – | c1c[nH]c(CNc2ccc([C@H]3CC[C@H]4CCCCN43)cc2)n1 (racemic) [Example 134] | Ki [2]: 3.64 µM
4 | – | c1ccc(CNc2ccc([C@H]3CC[C@H]4CCCCN43)cc2)nc1 (racemic) [Example 128] | Ki [2]: 1.34 µM
5 | – | c1cncc(Oc2ccc([C@H]3CC[C@H]4CCCCN43)cc2)c1 (racemic) [Example 29] | Ki [3]: 0.15 µM
6 | 0.0091 | c1cc([C@H]2CC[C@H]3CCCCN32)ccc1OCCN1CCCCC1 (racemic) [Example 16, 3-[4-(2-Piperidin-1-yl-ethoxy)-phenyl]-octahydro-indolizine] | Ki (Table 1, [3H]-N-methylhistamine binding): 0.009 µM
7 | – | c1ccc(CNc2ccc([C@H]3CC[C@H]4CCCCN43)cc2)cc1 (racemic) [Example 132] | Ki [2]: 0.511 µM
8 | 0.314 | c1cc([C@@H]2CC[C@@H]3CCCCN32)ccc1NC1CCNCC1 (relative stereo) [Example 101, trans-3-[4-(4-Piperidinylamino)phenyl]octahydroindolizine] | –
9 | 0.001 | c1cc([C@@H]2CCC[C@@H]3CCCN32)ccc1OCCCCCN1CCCCC1 [Example 65] | –
10 | 0.278 | ClCCCCOc1ccc([C@@H]2CCC[C@@H]3CCCN32)cc1 (racemic) [Example 61, 5-[4-(4-Chlorobutanoxy)phenyl]octahydroindolizine] | –
11 | 0.787 | CS(=O)(=O)N(c1ccc([C@@H]2CC[C@@H]3CCCCN32)cc1)S(C)(=O)=O (relative stereo) [Example 98, trans-3-(4-(bis-Methylsulfonylamino)phenyl)octahydroindolizine] | –
12 | 0.33 | N=C1NC(=N)/C(=C/c2ccc([C@H]3CC[C@H]4CCCCN43)cc2)S1 (relative stereo) [Example 46, trans-3-[4-(4-Methylene-1,3-thiazolidine-2,4-diimine)phenyl]octahydroindolizine] | –
13 | – | c1ccc(Sc2ccc([C@H]3CC[C@H]4CCCCN43)cc2)nc1 (racemic) [Example 28] | Ki [3]: 0.205 µM
14 | 0.04 | NC(=NO)c1ccc(Sc2ccc([C@H]3CC[C@H]4CCCCN43)cc2)cc1 (racemic) [Example 43, tran-3-[4-((4-Amidoxime)phenylthio)phenyl]octahydroindolizine] | –
15 | 0.002 | CN1CCCC1CCOc1ccc([C@H]2CC[C@H]3CCCCN32)cc1 (mixture of isomers) [Example 91, trans-3-{4-[2,2′-(N-Methylpyrrolidinyl)ethoxy]phenyl}octahydroindolizine] | –
16 | 0.315 | c1ccc([C@H]2C[C@@H]3CCCCN3C2)c(OCCCN2CCCCC2)c1 (relative stereo) [Example 71, anti-2-[2-(3-Piperidinylpropoxy)phenyl]octahydroindolizine] | –
17 | – | Nc1cccc(-c2ccc([C@H]3CC[C@H]4CCCCN43)cc2)c1 (racemic) [Example 48] | Ki (Table 3, [3H]-N-methylhistamine binding): 0.665 µM
18 | 0.0007 | c1cc([C@@H]2CCC[C@@H]3CCCN32)ccc1OCCCN1CCCCC1 (racemic) [Example 64, 5-[4-(3-Piperidinylpropoxy)phenyl]octahydroindolizine] | –
19 | – | c1ccc2[nH]c(Oc3ccc([C@H]4CC[C@H]5CCCCN54)cc3)nc2c1 (racemic) [Example 30] | Ki [3]: 0.49 µM
20 | 1.5 | C[Si](C)(C)C#Cc1ccc([C@H]2CC[C@H]3CCCCN32)cc1 (racemic) [Example 74, trans-3-(4-trimethylsilylacetylenephenyl)octahydroindolizine] | –
21 | 0.009 | NCc1ccc(Sc2ccc([C@H]3CC[C@H]4CCCCN43)cc2)cc1 (racemic) [Example 44] | –
22 | 0.098 | CN(c1ccc([C@H]2CC[C@H]3CCCCN32)cc1)C1CCN(S(C)(=O)=O)CC1 (racemic) [Example 103] | –
23 | 0.063 | CN(C(=O)CCCCN1CCCCC1)c1ccc([C@H]2CC[C@H]3CCCCN32)cc1 (racemic) [Example 113, trans-3-[4-(N-Methyl-N-5-piperidylpentanamido)phenyl]octahydroindolizine] | –
24 | 0.065 | c1ccc(N2CCN(Cc3ccc([C@H]4CC[C@H]5CCCCN54)cc3)CC2)cc1 (racemic) [Example 23, trans-3-[4-(N-Phenyl-1-piperazinylmethyl)phenyl]octahydroindolizine] | –
25 | 2.77 | C=CC(=O)N(C)c1ccc([C@@H]2CC[C@@H]3CCCCN32)cc1 (relative stereo) [Example 108, N-Methyl-N-[4-(trans-Octahydro-3-indolizinyl)phenyl]propenamide] | –
26 | – | c1coc(CNc2ccc([C@H]3CC[C@H]4CCCCN43)cc2)c1 (racemic) [Example 130] | Ki [2]: 0.647 µM
27 | – | c1cncc(CNc2ccc([C@H]3CC[C@H]4CCCCN43)cc2)c1 (racemic) [Example 127] | Ki [2]: 0.589 µM

Row | Compound | Ki [1] [µM] | further results
28 | trans-3-[4-(Vinylsulfonylamino)phenyl]octahydroindolizine [Example 119] | > 5 | –
29 | CN(c1ccc([C@@H]2CC[C@@H]3CCCCN32)cc1)S(=O)(=O)CCN1CCCCC1 (relative stereo) [Example 121, trans-3-{4-[(2-Piperidylethyl)sulfonyl-N-methylamino]phenyl}octahydroindolizine] | 0.019 | –
30 | c1cc(Sc2ccc([C@H]3CC[C@H]4CCCCN43)cc2)ccn1 [Example 137, (R, R)-Octahydro-3-[4-(4-pyridinylthio)phenyl]indolizine] | 0.0038 | –
31 | c1cc(Oc2ccc([C@H]3CC[C@H]4CCCCN43)cc2)ccn1 (racemic) [Example 76, trans-3-[4-(4-Pyridyloxy)phenyl]octahydroindolizine] | 0.077 | –
32 | CN(CCCCCN1CCCCC1)c1ccc([C@@H]2CC[C@@H]3CCCCN32)cc1 (relative stereo) [Example 114, trans-3-[4-(N-Methyl-N-5-piperidylpentylamino)phenyl]octahydroindolizine] | 0.009 | –
33 | c1cc([C@@H]2CC[C@@H]3CCCCN32)ccc1NCCCN1CCCCC1 (relative stereo) [Example 106, trans-3-[4-(N-3-Piperidylpropylamino)phenyl]octahydroindolizine] | 0.0015 | –
34 | Oc1ccc([C@@H]2CCC[C@@H]3CCCN32)cc1 (racemic) [Example 60, 5-(4-Hydroxyphenyl)octahydroindolizine] | 1.4 | –
35 | c1cc(Sc2ccc(C3CCCC4CCCCN43)cc2)ccn1 (stereo not shown) [Example 25, 4-[4-(4-Pyridylthio)phenyl]octahydoquinolizine] | 0.305 | –
36 | c1cc([C@@H]2CC[C@@H]3CCCCN32)ccc1NCCCCCN1CCCCC1 (relative stereo) [Example 115, trans-3-[4-(N-5-Piperidylpentylamino)phenyl]octahydroindolizine] | 0.0007 | –
37 | O=C(CCCCN1CCCCC1)Nc1ccc([C@@H]2CC[C@@H]3CCCCN32)cc1 (relative stereo) [Example 112, trans-3-[4-(N-5-Piperidylpentanamido)phenyl]octahydroindolizine] | 0.0021 | –
38 | c1cc(Sc2ccc([C@@H]3CC[C@@H]4CCCCN43)cc2)ccn1 [Example 138, (S, S)-Octahydro-3-[4-(4-pyridinylthio)phenyl]indolizine] | 0.1 | –
39 | OC(c1ccncc1)c1ccc([C@H]2CC[C@H]3CCCCN32)cc1 (stereo partly drawn) [Example 24, trans-3-[4-(4-Pyridylmethan-1-ol)phenyl]octahydroindolizine] | 0.082 | –

From patent US20050288323A1, “Octahydro-indolizine and quinolizine and hexahydro-pyrrolizine” (priority 2000, published 2005)
